Test results: ChEMBL document CHEMBL3779844, “Biocatalyzed synthesis of difuranosides and their ability to trigger production of TNF-α” (2016)
Calls of active or inactive are those of the source. The calls are words filed in the database; no cut-off is given here.

System: RAW264.7
Test: Immunomodulatory activity in mouse RAW264.7 cells assessed as TNF alpha production at 1 to 1000 ng/ml after 18 hrs by ELISA method (reference value: 4.4 +/- 3.4 pg/ml)
Type: functional

Structure (SMILES)	Activity
O=[N+]([O-])c1ccc(O[C@@H]2O[C@@H]([C@H](O)CF)[C@H](O)[C@H]2O[C@@H]2O[C@@H]([C@H](O)CF)[C@H](O)[C@H]2O)cc1	>200 pg/mL

System: RAW264.7
Test: Immunomodulatory activity in mouse RAW264.7 cells assessed as TNF alpha production at 1 to 1000 ng/ml after 18 hrs by ELISA method
Type: functional, cell-based

Structure (SMILES)	Activity
C[C@@H](O)[C@@H]1O[C@@H](O[C@H]2[C@H](O[C@H]3[C@H](Oc4ccc([N+](=O)[O-])cc4)O[C@@H]([C@H](O)CO)[C@@H]3O)O[C@@H]([C@@H](C)O)[C@@H]2O)[C@H](O)[C@H]1O	Active
C[C@@H](O)[C@@H]1O[C@@H](OC[C@@H](O)[C@@H]2O[C@@H](Oc3ccc([N+](=O)[O-])cc3)[C@H](O)[C@H]2O)[C@H](O)[C@H]1O	inactive
CCCCCCCCO[C@@H]1O[C@@H]([C@H](O)CO)[C@H](O)[C@H]1O[C@H]1O[C@H]([C@@H](O)CO)[C@@H](O)[C@@H]1O[C@@H]1O[C@@H]([C@@H](O)CO)[C@H](O)[C@H]1O[C@@H]1O[C@@H]([C@@H](O)CO)[C@H](O)[C@H]1O (stereo in doubt)	Active
O=[N+]([O-])c1ccc(O[C@@H]2O[C@@H]([C@H](O)CO[C@@H]3O[C@@H]([C@H](O)CF)[C@H](O)[C@H]3O)[C@H](O)[C@H]2O)cc1	inactive
CCCCCCCCO[C@H]1O[C@H]([C@@H](O)CO)[C@@H](O)[C@@H]1O[C@@H]1O[C@@H]([C@@H](O)CO)[C@H](O)[C@H]1O[C@@H]1O[C@@H]([C@@H](O)CO)[C@H](O)[C@H]1O (stereo in doubt)	Active
O=[N+]([O-])c1ccc(O[C@@H]2O[C@@H]([C@H](O)CO)[C@H](O)[C@H]2O[C@@H]2O[C@@H]([C@H](O)CO)[C@H](O)[C@H]2O[C@@H]2O[C@@H]([C@H](O)CO)[C@H](O)[C@H]2O)cc1	Active
CCCCCCCCO[C@@H]1O[C@@H]([C@H](O)CO)[C@H](O)[C@H]1O[C@@H]1O[C@@H]([C@H](O)CO)[C@H](O)[C@H]1O[C@H]1O[C@H]([C@H](O)CO)[C@@H](O)[C@@H]1O[C@@H]1O[C@@H]([C@@H](O)CO)[C@H](O)[C@H]1O[C@H]1O[C@H]([C@@H](O)CO)[C@@H](O)[C@@H]1O (stereo in doubt)	Active
C[C@@H](O)[C@@H]1O[C@@H](O[C@@H]2[C@@H](O)[C@H](Oc3ccc([N+](=O)[O-])cc3)O[C@H]2[C@H](O)CO)[C@H](O)[C@H]1O	inactive
CCCCCCCCO[C@H]1O[C@H]([C@@H](O)CF)[C@@H](O)[C@@H]1O[C@@H]1O[C@@H]([C@@H](O)CO)[C@H](O)[C@H]1O[C@@H]1O[C@@H]([C@@H](O)CO)[C@H](O)[C@H]1O (stereo in doubt)	Active
CCCCCCCCO[C@@H]1O[C@@H]([C@H](O)CO[C@@H]2O[C@@H]([C@H](O)CO)[C@H](O)[C@H]2O)[C@H](O)[C@H]1O	Active
CCCCCCCCO[C@H]1O[C@H]([C@H](C)O)[C@@H](O)[C@@H]1O[C@@H]1O[C@@H]([C@@H](O)CO)[C@H](O)[C@H]1O[C@@H]1O[C@@H]([C@@H](O)CO)[C@H](O)[C@H]1O (stereo in doubt)	Active
O=[N+]([O-])c1ccc(O[C@@H]2O[C@@H]([C@H](O)CO)[C@H](O)[C@H]2O[C@@H]2O[C@@H]([C@H](O)CO)[C@H](O)[C@H]2O)cc1	Active
C[C@@H](O)[C@@H]1O[C@@H](O[C@H]2[C@H](Oc3ccc([N+](=O)[O-])cc3)O[C@@H]([C@H](O)CO)[C@@H]2O)[C@H](O)[C@H]1O	inactive
O=[N+]([O-])c1ccc(O[C@@H]2O[C@@H]([C@H](O)CO)[C@H](O)[C@H]2O[C@@H]2O[C@@H]([C@H](O)CF)[C@H](O)[C@H]2O)cc1	inactive
C[C@@H](O)[C@@H]1O[C@@H](O[C@H](CO)[C@@H]2O[C@@H](Oc3ccc([N+](=O)[O-])cc3)[C@H](O)[C@H]2O)[C@H](O)[C@H]1O	inactive
CCCCCCCCO[C@@H]1O[C@@H]([C@H](O)CO)[C@H](O)[C@H]1O[C@@H]1O[C@@H]([C@H](O)CO)[C@H](O)[C@H]1O	Active

System: RAW264.7
Test: Immunomodulatory activity in mouse RAW264.7 cells assessed as increase in TNF alpha production after 18 hrs by ELISA method (reference value: 4.4 +/- 3.4 pg/ml)
Type: functional

Structure (SMILES)	Activity
CCCCCCCCO[C@@H]1O[C@@H]([C@H](O)CF)[C@H](O)[C@H]1O[C@@H]1O[C@@H]([C@H](O)CF)[C@H](O)[C@H]1O	600 pg/mL
